Laboratory results from PubChem BioAssay (NCI).
“And” between values parts separate entries of the source, which are not always exact repeats. Equal values may be shown once.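 How tested: cells in 96-well plates exposed to compound for 48 hours at five concentrations. GI50 is the concentration that inhibits growth by half. TGI marks complete inhibition of growth.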

How the values were obtained:
Assay in all cases: DTP human tumour cell line panel, 48 h
A549 NSCLC = system: A549 NSCLC
HCC-2998 colon = system: HCC-2998 colon
OVCAR-8 ovarian = system: OVCAR-8 ovarian
RXF 393 renal = system: RXF 393 renal
SK-MEL-28 melanoma = system: SK-MEL-28 melanoma
SW-620 colon = system: SW-620 colon
BT-549 breast = system: BT-549 breast
DU-145 prostate = system: DU-145 prostate
MDA-MB-435 = system: MDA-MB-435
NCI/ADR-RES ovarian = system: NCI/ADR-RES ovarian

Compound	TGI (A549 NSCLC)	TGI (HCC-2998 colon) [µM]	TGI (OVCAR-8 ovarian)	TGI (RXF 393 renal)	TGI (SK-MEL-28 melanoma)	TGI (SW-620 colon)	TGI (BT-549 breast) [µM]	TGI (DU-145 prostate)	TGI (MDA-MB-435)	TGI (NCI/ADR-RES ovarian)	GI50 (A549 NSCLC)	GI50 (BT-549 breast) [µM]	GI50 (DU-145 prostate)	GI50 (HCC-2998 colon) [µM]	GI50 (MDA-MB-435)	GI50 (NCI/ADR-RES ovarian)	GI50 (OVCAR-8 ovarian)	GI50 (RXF 393 renal)	GI50 (SK-MEL-28 melanoma)	GI50 (SW-620 colon)
Cc1c(C(=O)CC(=O)C(=O)Nc2cc(Cl)ccc2Cl)[n+](=O)c2ccccc2n1[O-]	> 100 µM	> 100	> 100 µM	> 100 µM	> 100 µM	> 100 µM														
CC(C(=O)O)c1ccc(-c2ccccc2)c(F)c1 (stereo unspecified)	> 100 µM	> 100	> 100 µM	> 100 µM	> 100 µM	> 100 µM	> 100	> 100 µM	> 100 µM	> 100 µM										
Clc1ccc2ns[s+]c2c1	> 100 µM	> 100	> 100 µM	> 100 µM	> 100 µM	> 100 µM	> 100	> 100 µM	> 100 µM											
S=P(N1CCCC1)(N1CC1)N1CC1	> 100 µM	> 100	> 100 µM	> 100 µM	> 100 µM	> 100 µM														
CCCCCCNC(=O)n1cc(F)c(=O)[nH]c1=O	> 100 µM	18.4	24.1 µM	20.3 µM	27.7 µM	20.7 µM	24.9	> 100 µM	24.2 µM	92.5 µM	0.738 µM	2.56	5.38 µM	0.287	1.21 µM	12 µM	3.29 µM	6.22 µM	3.96 µM	3.48 µM
Oc1c(Cl)cc(Cl)cc1Sc1cc(Cl)cc(Cl)c1O	11.9 µM and 10.6 µM	14.7	12.6 µM and 11.4 µM	8.76 µM and 7.65 µM	21 µM and 14.5 µM	13.2 µM and 12.5 µM	8.09	20.8 µM and 15.5 µM	12.4 µM and 9 µM	13.1 µM and 9.29 µM	3.37 µM and 3.03 µM	2.81	5.01 µM and 4.18 µM	3.7	3.42 µM and 2.72 µM	2.92 µM and 2.74 µM	3.28 µM and 2.85 µM	2.84 µM and 2.52 µM	7.01 µM and 4 µM	3.32 µM and 3.06 µM
Cc1nn(CNc2ccccc2C(F)(F)F)c(=S)n1/N=C/c1ccc(F)cc1	> 100 µM	> 100	> 100 µM	> 100 µM	> 100 µM	> 100 µM	> 100	> 100 µM	> 100 µM	> 100 µM	> 100 µM	> 100	> 100 µM	> 100	> 100 µM	> 100 µM	> 100 µM	> 100 µM	50 µM	> 100 µM
COC(=O)[C@H]1[C@H]2C[C@@H]3c4[nH]c5cc(OC)ccc5c4CCN3C[C@H]2C[C@@H](OC(=O)/C=C/c2cc(OC)c(OC)c(OC)c2)[C@@H]1OC	> 100 µM	> 100	50.4 µM	31.5 µM	28 µM	> 100 µM	24.6	> 100 µM	19.4 µM	28.5 µM	8.89 µM	11.6	5.88 µM	24.2	3.22 µM	4.55 µM	4.74 µM	11 µM	12.6 µM	8.47 µM
CCCCN(CC)c1ncnc2ccc(Br)cc12	45.6 µM	44.2	34.2 µM	24.7 µM	46.5 µM			46.8 µM	34.4 µM	39.8 µM	13.9 µM		19.4 µM	20.5	16 µM	15.6 µM	14 µM	8.45 µM	18.1 µM	
Cc1c(Cl)cccc1NC(=O)/C(Cl)=C(\Cl)C(=O)O	38.9 µM	35.5		36.9 µM	35.4 µM	39.9 µM														
Cc1ccc(/C=C2/NC(=S)SC2=O)cc1	> 100 µM	> 100	> 100 µM		> 100 µM	> 100 µM	54.2	> 100 µM	> 100 µM	> 100 µM										
COc1cc(C2c3cc4c(cc3[C@@H](OCCN(C)C)C3COC(=O)[C@H]23)OCO4)cc(OC)c1O (stereo partly specified)			2.17 µM	1.97 µM	4.1 µM	3.59 µM														
CCOC(=O)c1c(-c2ccccc2)c(C(OC(c2ccccc2)c2c(-c3ccccc3)c(C(=O)OCC)n3ccccc23)c2ccccc2)c2ccccn12 (stereo unspecified)	> 100 µM	> 100	> 100 µM	> 100 µM	> 100 µM	> 100 µM														
COc1cc(C2c3cc4c(cc3[C@@H](N(C)C)[C@H]3COC(=O)C23)OCO4)cc(OC)c1O (stereo partly specified)	> 100 µM	> 100	80.1 µM	> 100 µM	> 100 µM	> 100 µM														
COC(=O)c1ccc(C(=O)OC)c2nc3cc(C)ccc3nc12	> 100 µM	> 100	> 100 µM		> 100 µM	> 100 µM														
CS(=O)(=O)NNS(=O)(=O)c1ccc(Cl)cc1	> 100 µM	> 100	> 100 µM	> 100 µM		> 100 µM														
Nc1nc(N)nc(CC(=O)O)n1	> 100 µM		> 100 µM	> 100 µM	> 100 µM	> 100 µM	> 100	> 100 µM	> 100 µM	> 100 µM										
Nc1ccc(C(=O)CC2(O)C(=O)Nc3c(Cl)cc(Cl)cc32)cc1 (stereo unspecified)	> 100 µM	> 100	> 100 µM	> 100 µM	> 100 µM	65.4 µM														
COc1ccc2ccccc2c1CN1CCOCCOCCN(Cc2c(OC)ccc3ccccc23)CCOCCOCC1	> 100 µM	35.3	> 100 µM	> 100 µM	> 65 µM	> 94.7 µM														
COC(=O)c1ccc(CN2C(=O)C(Cl)=C(Nc3ccc(OC)c(Cl)c3)C2=O)cc1	> 50 µM		> 50 µM	26.1 µM	30.7 µM	> 50 µM	26.7	> 50 µM	> 50 µM	30.9 µM	26.2 µM	11.3	21.8 µM		47.3 µM	12.7 µM	23.8 µM	11.2 µM	8.48 µM	> 50 µM
